This is an account of results in patent US10981905B2, “Heteroaryl-substituted sulfonamide compounds and their use as therapeutic agents” (Xenon Pharmaceuticals Inc., priority 2018, dated 2021).

Counter-ions that a name gives are not always drawn. Like-named read-outs stand apart in the source and are kept apart here. Where only a bound is given, the exact number is not on record here.

The target of one data set is Nav1.1 (Homo sapiens (Human), UniProt P35498). The data set is described as follows: Sodium Influx Assay (Flux), Nav1.1. The class given is cell-based. Conditions: Trex HEK293 cells, ANG2 dye, inactivated state.
A further data set concerns the target Nav1.5 (Homo sapiens (Human), UniProt Q14524). Description: Sodium Influx Assay (Flux), Nav1.5.
The target in another data set is Nav1.6 (Homo sapiens (Human), UniProt Q9UQD0). Description: Sodium Influx Assay (Flux), Nav1.6. It is filed as cell-based. Conditions: Trex HEK293 cells, ANG2 dye, inactivated state.
[1] abbreviates: read-out: Flux NaV1.5 IC50, sodium influx assay, Trex HEK293 cells, ANG2 dye, inactivated state.

Nav1.5, sequence (Q14524 other isoform, or with tags, fused parts or gaps): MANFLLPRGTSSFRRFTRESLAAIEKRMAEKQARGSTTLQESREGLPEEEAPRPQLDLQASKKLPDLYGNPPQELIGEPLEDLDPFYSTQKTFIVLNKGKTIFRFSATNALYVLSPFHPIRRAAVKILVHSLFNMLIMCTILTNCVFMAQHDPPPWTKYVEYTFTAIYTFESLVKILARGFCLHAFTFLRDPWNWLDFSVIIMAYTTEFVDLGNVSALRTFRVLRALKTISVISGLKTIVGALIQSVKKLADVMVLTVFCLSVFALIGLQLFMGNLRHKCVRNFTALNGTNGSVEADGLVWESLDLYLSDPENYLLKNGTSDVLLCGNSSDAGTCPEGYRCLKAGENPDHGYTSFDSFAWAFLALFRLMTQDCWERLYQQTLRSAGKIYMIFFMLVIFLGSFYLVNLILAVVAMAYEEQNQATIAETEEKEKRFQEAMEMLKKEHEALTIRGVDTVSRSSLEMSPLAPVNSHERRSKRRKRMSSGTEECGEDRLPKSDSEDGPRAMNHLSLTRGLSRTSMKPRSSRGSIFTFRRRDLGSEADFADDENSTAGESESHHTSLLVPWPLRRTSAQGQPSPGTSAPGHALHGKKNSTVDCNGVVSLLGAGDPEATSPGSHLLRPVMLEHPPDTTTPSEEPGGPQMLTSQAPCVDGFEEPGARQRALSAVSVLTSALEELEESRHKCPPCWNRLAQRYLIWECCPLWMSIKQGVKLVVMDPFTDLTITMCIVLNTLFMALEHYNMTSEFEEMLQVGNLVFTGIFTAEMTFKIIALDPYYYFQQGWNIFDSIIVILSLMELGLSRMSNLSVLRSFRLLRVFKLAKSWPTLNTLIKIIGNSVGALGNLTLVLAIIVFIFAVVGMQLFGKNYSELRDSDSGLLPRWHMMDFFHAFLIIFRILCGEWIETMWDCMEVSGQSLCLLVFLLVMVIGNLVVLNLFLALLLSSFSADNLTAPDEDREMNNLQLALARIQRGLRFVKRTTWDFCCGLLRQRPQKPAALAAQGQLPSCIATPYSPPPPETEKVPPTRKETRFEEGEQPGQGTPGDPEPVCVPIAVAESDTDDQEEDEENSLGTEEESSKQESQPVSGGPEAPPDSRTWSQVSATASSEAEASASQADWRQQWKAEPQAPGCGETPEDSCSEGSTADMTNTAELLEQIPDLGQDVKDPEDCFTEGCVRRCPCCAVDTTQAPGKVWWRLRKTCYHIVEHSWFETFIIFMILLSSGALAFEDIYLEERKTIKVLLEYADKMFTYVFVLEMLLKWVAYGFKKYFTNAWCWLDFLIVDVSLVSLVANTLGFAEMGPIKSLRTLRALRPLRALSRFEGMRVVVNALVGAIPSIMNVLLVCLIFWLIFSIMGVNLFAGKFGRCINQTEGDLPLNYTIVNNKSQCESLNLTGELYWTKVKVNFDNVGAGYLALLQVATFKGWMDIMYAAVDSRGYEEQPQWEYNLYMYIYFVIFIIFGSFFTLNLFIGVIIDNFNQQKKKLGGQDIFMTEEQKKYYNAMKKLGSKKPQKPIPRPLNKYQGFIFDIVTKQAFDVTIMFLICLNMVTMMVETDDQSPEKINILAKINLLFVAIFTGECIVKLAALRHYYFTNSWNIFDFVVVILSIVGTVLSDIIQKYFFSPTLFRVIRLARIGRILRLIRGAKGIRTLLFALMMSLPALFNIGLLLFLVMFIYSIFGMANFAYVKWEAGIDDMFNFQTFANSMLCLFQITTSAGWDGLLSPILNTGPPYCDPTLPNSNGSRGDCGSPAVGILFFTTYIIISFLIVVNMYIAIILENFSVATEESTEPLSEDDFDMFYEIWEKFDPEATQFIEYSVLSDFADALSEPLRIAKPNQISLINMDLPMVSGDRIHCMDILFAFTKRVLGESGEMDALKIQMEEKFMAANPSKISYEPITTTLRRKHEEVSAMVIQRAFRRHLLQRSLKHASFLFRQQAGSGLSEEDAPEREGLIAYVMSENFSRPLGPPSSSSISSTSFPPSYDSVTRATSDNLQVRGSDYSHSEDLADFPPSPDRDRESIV

For orientation: IC50 means the concentration that gives 50% inhibition. Turning to `O=S(=O)(Nc1cccc(F)n1)c1cnc(NCc2c(F)cccc2CN2CCCC2)c(Cl)c1` [Example 42, 5-chloro-6-((2-fluoro-6-(pyrrolidin-1-ylmethyl)benzyl)amino)-N-(6-fluoropyridin-2-yl)pyridine-3-sulfonamide trifluoroacetic acid salt], the concentration for half-maximal inhibition (IC50) on Nav1.1 was found to be 6.29 µM; on Nav1.5 (setting [1]), 9.11 µM; at Nav1.6, 4.47 µM.
For `Cc1cc(S(=O)(=O)Nc2cscn2)ncc1NCc1c(F)cccc1CN1CCC1` [Example 7, 5-((2-(azetidin-1-ylmethyl)-6-fluorobenzyl)amino)-4-methyl-N-(thiazol-4-yl)pyridine-2-sulfonamide formic acid salt], in that order: 30 µM, 30 µM and 5.82 µM.
For the molecule `Cc1nc(S(=O)(=O)Nc2cccc(F)n2)ccc1NCc1c(F)cccc1CN(C)C(C)(C)C` [Example 22, 5-((2-((tert-butyl(methyl)amino)methyl)-6-fluorobenzyl)amino)-N-(6-fluoropyridin-2-yl)-6-methylpyridine-2-sulfonamide trifluoroacetic acid salt], the values for the IC50 against Nav1.1, on Nav1.5 (setting [1]) and against Nav1.6 were 30 µM, 30 µM and 0.221 µM, respectively.
For the molecule `CN(Cc1cccc(F)c1CNc1cc(F)c(S(=O)(=O)Nc2cscn2)nc1C1CC1)C(C)(C)C` [Example 49, 5-((2-((tert-butyl(methyl)amino)methyl)-6-fluorobenzyl)amino)-6-cyclopropyl-3-fluoro-N-(thiazol-4-yl)pyridine-2-sulfonamide], the figures for the half-maximal inhibitory concentration (IC50) against Nav1.1, on Nav1.5 (setting [1]) and at Nav1.6 were 3.75 µM, 7.5 µM and 0.078 µM, respectively.
Turning to `Cc1nc(S(=O)(=O)Nc2cscn2)c(F)cc1NCc1c(F)cccc1CN(C)C(C)C` [Example 35, 3-fluoro-5-((2-fluoro-6-((isopropyl(methyl)amino)methyl)benzyl)amino)-6-methyl-N-(thiazol-4-yl)pyridine-2-sulfonamide trifluoroacetic acid salt], the values for the half-maximal inhibitory concentration (IC50) against Nav1.1, on Nav1.5 and against Nav1.6 were 10.5 µM, not below 30 µM and 0.024 µM, respectively.
On to `O=S(=O)(Nc1cscn1)c1cc(C(F)F)c(NCc2c(F)cccc2CN2CCCC2)cn1` [Example 17, 4-(difluoromethyl)-5-((2-fluoro-6-(pyrrolidin-1-ylmethyl)benzyl)amino)-N-(thiazol-4-yl)pyridine-2-sulfonamide formic acid salt], for which the IC50 on Nav1.1 was found to be 30 µM; at Nav1.5 (setting [1]), 30 µM; at Nav1.6, 1.46 µM.
As for `Cc1nc(S(=O)(=O)Nc2cscn2)ccc1NCc1cccc(F)c1CN1CCC1` [Example 27, 5-((2-(azetidin-1-ylmethyl)-3-fluorobenzyl)amino)-6-methyl-N-(thiazol-4-yl)pyridine-2-sulfonamide trifluoroacetic acid salt], the half-inhibitory concentration (IC50) against Nav1.1 turned out to be 30 µM; on Nav1.5 (setting [1]) it was 30 µM; on Nav1.6, 0.296 µM.
Take `Cc1nc(S(=O)(=O)Nc2cscn2)ccc1NCc1c(F)cccc1CN1CCC1(C)C` [Example 8, 5-((2-((2,2-dimethylazetidin-1-yl)methyl)-6-fluorobenzyl)amino)-6-methyl-N-(thiazol-4-yl)pyridine-2-sulfonamide trifluoroacetic acid salt]: the figures for the IC50 on Nav1.1, on Nav1.5 (setting [1]) and against Nav1.6 were 30 µM, 30 µM and 0.719 µM, respectively.
On to `Cc1nc(S(=O)(=O)Nc2cscn2)ccc1NCc1cccc2ccncc12` [Example 16, 5-((isoquinolin-8-ylmethyl)amino)-6-methyl-N-(thiazol-4-yl)pyridine-2-sulfonamide formic acid salt], for which the half-maximal inhibitory concentration (IC50) was determined as 30 µM at Nav1.1, 30 µM at Nav1.5 (setting [1]) and 1.27 µM at Nav1.6.
Regarding `Cc1cc(S(=O)(=O)Nc2cccc(F)n2)ncc1NCc1c(F)cccc1CN1CCC1` [Example 9, 5-((2-(azetidin-1-ylmethyl)-6-fluorobenzyl)amino)-N-(6-fluoropyridin-2-yl)-4-methylpyridine-2-sulfonamide], the IC50 at Nav1.1 worked out at 30 µM; on Nav1.5 (setting [1]), 21.1 µM; on Nav1.6 it was 0.917 µM.
For `Cc1nc(S(=O)(=O)Nc2cscn2)ccc1NCc1c(F)cccc1CN1CCCC1` [Example 30, 5-((2-fluoro-6-(pyrrolidin-1-ylmethyl)benzyl)amino)-6-methyl-N-(thiazol-4-yl)pyridine-2-sulfonamide trifluoroacetic acid salt], in that order: 30 µM, 30 µM and 0.111 µM.
As to `Cc1nc(S(=O)(=O)Nc2cscn2)ccc1NCc1ccccc1CN1CCC1` [Example 26, 5-((2-(azetidin-1-ylmethyl)benzyl)amino)-6-methyl-N-(thiazol-4-yl)pyridine-2-sulfonamide trifluoroacetic acid salt], the 50% inhibitory concentration (IC50) against Nav1.1 was found to be 30 µM; at Nav1.5 (setting [1]), 30 µM; against Nav1.6 it was 0.242 µM.
As for `Cc1cc(S(=O)(=O)Nc2cscn2)cnc1NCc1c(F)cccc1CN(C)C(C)(C)C` [Example 13, 6-((2-((tert-butyl(methyl)amino)methyl)-6-fluorobenzyl)amino)-5-methyl-N-(thiazol-4-yl)pyridine-3-sulfonamide formic acid salt], the IC50 against Nav1.1 stood at 14.9 µM; on Nav1.5 (setting [1]), 6.02 µM; against Nav1.6, 11.3 µM.
Consider `Cc1nc(S(=O)(=O)Nc2cscn2)ccc1NCc1ccccc1CN(C)C(C)(C)C` [Example 28, 5-((2-((tert-butyl(methyl)amino)methyl)benzyl)amino)-6-methyl-N-(thiazol-4-yl)pyridine-2-sulfonamide trifluoroacetic acid salt], for which the figures for the half-maximal inhibitory concentration (IC50) on Nav1.1, on Nav1.5 and on Nav1.6 were not below 30 µM, not below 30 µM and 0.782 µM, respectively.
With `Cc1nc(S(=O)(=O)Nc2cscn2)ccc1NCc1c(F)cccc1CN1CC(C)C1` [Example 24, 5-((2-fluoro-6-((3-methylazetidin-1-yl)methyl)benzyl)amino)-6-methyl-N-(thiazol-4-yl)pyridine-2-sulfonamide], the 50% inhibitory concentration (IC50) worked out at 30 µM at Nav1.1, 30 µM on Nav1.5 (setting [1]) and 0.074 µM on Nav1.6.
Consider `Cc1nc(S(=O)(=O)Nc2cscn2)ccc1NCc1c(F)cccc1CN1CC(C)(F)C1` [Example 14, 5-((2-fluoro-6-((3-fluoro-3-methylazetidin-1-yl)methyl)benzyl)amino)-6-methyl-N-(thiazol-4-yl)pyridine-2-sulfonamide], for which the IC50 against Nav1.1 was found to be 13 µM; at Nav1.5 (setting [1]), 24.5 µM; against Nav1.6, 0.382 µM.
For `Cc1cc(S(=O)(=O)Nc2cccc(F)n2)sc1NCc1c(F)cccc1CN1CCCC1` [Example 43, 5-((2-fluoro-6-(pyrrolidin-1-ylmethyl)benzyl)amino)-N-(6-fluoropyridin-2-yl)-4-methylthiophene-2-sulfonamide trifluoroacetic acid salt], the results for the half-inhibitory concentration (IC50) on Nav1.1, at Nav1.5 (setting [1]) and against Nav1.6 were 8.21 µM, 10.3 µM and 2.11 µM, respectively.
For `O=S(=O)(Nc1cscn1)c1cc(C(F)(F)F)c(NCc2c(F)cccc2CN2CCC2)cn1` [Example 31, 5-((2-(azetidin-1-ylmethyl)-6-fluorobenzyl)amino)-N-(thiazol-4-yl)-4-(trifluoromethyl)pyridine-2-sulfonamide], in that order: 30 µM, 30 µM and 1.5 µM.
